Measured values published in US20050142111A1, “Method to prevent transplant rejection by stable expression of heme oxygenase-1” (priority 2003, published 2005).

Legend:
[1] = biological target: T1, HO (Rattus norvegicus, UniProt P06762); experiment: Blocking of HO activity by ZnPPIX, carboxyhemoglobin in peripheral blood of recipients; assay type: in vivo; settings: 2 mg/kg/day intraperitoneally to recipients
T1 construct: expressed in transfected cells; host or cells: LEW rat heart allografts transduced with rAAV/HO-1, in F344 rat recipients (in vivo)
T1 sequence (P06762 1-289): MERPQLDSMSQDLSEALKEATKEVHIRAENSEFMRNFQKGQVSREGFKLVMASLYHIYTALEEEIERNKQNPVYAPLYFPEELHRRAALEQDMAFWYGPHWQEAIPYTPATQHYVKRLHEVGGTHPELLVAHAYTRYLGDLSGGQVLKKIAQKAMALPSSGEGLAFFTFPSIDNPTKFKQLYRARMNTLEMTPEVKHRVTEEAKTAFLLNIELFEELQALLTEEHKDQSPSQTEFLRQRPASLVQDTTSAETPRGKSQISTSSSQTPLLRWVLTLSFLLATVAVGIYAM
Procedure: Heme oxygenase-1 inhibitor, zinc protoprophyrin IX (ZnPPIX, Calbiochem-Novabiochem, Germany) was administered intraperitoneally according to the experimental protocols.
The HO enzyme activity was measured by two of its end products: carbon monoxide and biliverdin/bilirubin. The amount of carbon monoxide was measured by spectrophotometry providing a determination of carboxyhemoglobin in the peripheral blood of the animals. The level of intragraft bilirubin was measured by the method as described. In brief, the frozen samples of grafts were homogenized in ice-cold sucrose and Tri-HCl buffer. The microsomal pellet was obtained after centrifugation, and re-suspended in MgCl2-potassium phosphate buffer. Sample protein was then incubated with the reaction mixture containing rat liver cytosol, hemin, glucose-6-phosphate, glucose-6-phosphate dehydrogenase and NADPH (Sigma-Aldrich, St. Louis) for 60 minutes at 37° C. The generated bilirubin was measured by reacting with diazotized surfanilic acid to yield azobilirubin using spectrophotometry. The level of intragraft bilirubin was deduced by the ratio of its contents in the sample/naive heart. […]

[2] = system: LEW heart grafts to F344 recipients; experiment: Allogeneic heart transplant graft survival; assay type: in vivo, rat
Procedure: LEW (RT1′) and F344 (RT1^lvl) rats were purchased from the Institute of Laboratory Animals, Medical School Hannover, Germany, and maintained in the Laboratory Animal Unit, The University of Hong Kong. All experimental procedures were performed according to institutional guidelines and approved by the Committee on the Use of Live Animal in Teaching and Research. Allogeneic heart transplants were performed using LEW and F344 rats weighing from 200-250 grams as donors or recipients respectively. For the syngeneic graft, LEW rats were used as recipients. In brief, after in situ perfusion of donor heart grafts with the HTK solution (Koehler Chemie, Germany), 1×10^12 vector genomes of rAAV/GFP or rAAV/HO-1 were administered into the heart graft via the coronary artery. Grafts were then preserved in cold HTK solution for 6 hours before the transplant. The implantation procedure was as described in the literature. Graft function was monitored by daily palpation, and the allograft rejection was defined by full cessation of ventricular contraction, and confirmed by pathological examination.
Heme oxygenase-1 inhibitor, zinc protoprophyrin IX (ZnPPIX, Calbiochem-Novabiochem, Germany) was administered intraperitoneally according to the experimental protocols. […]

C=CC1=C(C)c2cc3[n-]c(cc4[n-]c(cc5nc(cc1n2)C(C)=C5C=C)c(C)c4CCC(=O)O)c(CCC(=O)O)c3C.[Zn+2] [ZnPPIX, zinc protoporphyrin IX]
HO activity, level of carboxyhemoglobin [1]: significantly inhibited | graft survival rate in rAAV/HO-1+CsA group ([2]; ZnPPIX administered from day 31 to 100): remained unchanged | graft survival in rAAV/HO-1+CsA group ([2]; combined administration of ZnPPIX from day 0 to 30): shortened
